Reference: ChEMBL document CHEMBL1909557, “Oligopeptide cyclophilin inhibitors: a reassessment” (Eur J Med Chem, 2011)
Activity calls are given as the source filed them. Peptide text beside a SMILES is read from it.

Key:
[1] = biological target: Peptidyl-prolyl cis-trans isomerase A (Homo sapiens) (UniProt P62937); assay: Inhibition of PPIase activity of human recombinant cyclophilin-A using succinyl-Ala-Ala-Pro-Phe-4-nitroanilide as substrate at 100 uM by protease coupled assay
[2] = biological target: Peptidyl-prolyl cis-trans isomerase A (Homo sapiens) (UniProt P62937); assay: Binding affinity to human recombinant cyclophilin-A up to 25 uM by isothermal titration calorimetry assay
[3] = biological target: Peptidyl-prolyl cis-trans isomerase A (Homo sapiens) (UniProt P62937); assay: Inhibition of PPIase activity of human recombinant cyclophilin-A using succinyl-Ala-Ala-Pro-Phe-4-nitroanilide as substrate at 100 uM pretreated for 3 hrs before substrate addition by spectrophotometry

Sequence of Peptidyl-prolyl cis-trans isomerase A (Homo sapiens) (P62937 whole entry, looked up): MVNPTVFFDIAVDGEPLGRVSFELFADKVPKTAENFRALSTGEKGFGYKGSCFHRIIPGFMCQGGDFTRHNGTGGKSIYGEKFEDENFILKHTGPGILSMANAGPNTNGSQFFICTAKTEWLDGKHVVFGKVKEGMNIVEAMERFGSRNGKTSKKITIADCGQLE

N[C@@H](Cc1c[nH]c2ccccc12)C(=O)NCC(=O)N1CCC[C@H]1C(=O)O (H-Trp-Gly-Pro-OH)
inactive: inhibition [1] | Activity [2] | inhibition [3]
